Here are results for four compounds from BindingDB's records for doi:10.1016/j.bmcl.2012.05.078 (University of Milan, 2012).

The nature of the assay: Inhibition of Met-triggered cell scattering in HGF-stimulated MDCK cells preincubated for overnight before HGF challenge measured after 24 to 48 hrs.

The IC50 is the midpoint of a concentration-inhibition curve. A high value points to lower potency.

Consider `O=C(Cc1cc(C(F)(F)F)cc(C(F)(F)F)c1)NC(Cc1ccccc1)c1cn(-c2ccc(-c3cn4c(n3)sc3ccccc34)cc2)nn1` (centres undefined), for which the IC50 was found to be 600 nM.
Next, `O=C(Cc1cc(C(F)(F)F)cc(C(F)(F)F)c1)N[C@@H](Cc1ccccc1)C(=O)Nc1ccc(-c2cn3c(n2)sc2ccccc23)cc1`: 200 nM.
In the case of `Cc1[nH]c(/C=C2\C(=O)Nc3ccc(S(=O)(=O)N(C)c4cccc(Cl)c4)cc32)c(C)c1C(=O)N1CCN(C)CC1` [(3Z)-N-(3-CHLOROPHENYL)-3-({3,5-DIMETHYL-4-[(4-METHYLPIPERAZIN-1-YL)CARBONYL]-1H-PYRROL-2-YL}METHYLENE)-N-METHYL-2-OXOINDOLINE-5-SULFONAMIDE], 200 nM corresponded to half-maximal inhibition (IC50).
Next, `O=C(Cc1cc(C(F)(F)F)cc(C(F)(F)F)c1)N[C@H](Cc1ccccc1)C(=O)Nc1ccc(-c2cn3c(n2)sc2ccccc23)cc1`: 200 nM.
